The values below come from PubChem BioAssay AID1259407 (Chemical Carcinogenesis Research Information System (CCRIS), 2018).

The series deals with CCRIS mutagenicity, Ames/micronucleus/aberration tests. In words: CCRIS mutagenicity studies.

Activity calls are given as the source filed them. How the calls were made is not given here.

Consider `c1ccsc1`, for which the mutagenic call was “inactive; negative” (Test System: AMES SALMONELLA TYPHIMURIUM, Strain/Indicator: TA97, Metabolic Activation: HAMSTER, LIVER, AROCLOR 1254 (10%), Method: PREINCUBATION); “inactive; negative” (Test System: AMES SALMONELLA TYPHIMURIUM, Strain/Indicator: TA97, Metabolic Activation: HAMSTER, LIVER, S-9, AROCLOR 1254 (30%), Method: PREINCUBATION); “inactive; negative” (Test System: AMES SALMONELLA TYPHIMURIUM, Strain/Indicator: TA97, Metabolic Activation: NONE, Method: PREINCUBATION); “inactive; negative” (Test System: AMES SALMONELLA TYPHIMURIUM, Strain/Indicator: TA97, Metabolic Activation: RAT, LIVER, S-9, AROCLOR 1254 (10%), Method: PREINCUBATION); “inactive; negative” (Test System: AMES SALMONELLA TYPHIMURIUM, Strain/Indicator: TA97, Metabolic Activation: RAT, LIVER, S-9, AROCLOR 1254 (30%), Method: PREINCUBATION); “inactive; negative” (Test System: AMES SALMONELLA TYPHIMURIUM, Strain/Indicator: TA98, Metabolic Activation: HAMSTER, LIVER, S-9, AROCLOR 1254 (10%), Method: PREINCUBATION). Also, the mutagenic call is “inactive; negative” (Test System: AMES SALMONELLA TYPHIMURIUM, Strain/Indicator: TA98, Metabolic Activation: HAMSTER, LIVER, S-9, AROCLOR 1254 (30%), Method: PREINCUBATION); “inactive; negative” (Test System: AMES SALMONELLA TYPHIMURIUM, Strain/Indicator: TA98, Metabolic Activation: NONE, Method: PREINCUBATION); “inactive; negative” (Test System: AMES SALMONELLA TYPHIMURIUM, Strain/Indicator: TA98, Metabolic Activation: RAT, LIVER, S-9, AROCLOR 1254 (10%), Method: PREINCUBATION); “inactive; negative” (Test System: AMES SALMONELLA TYPHIMURIUM, Strain/Indicator: TA98, Metabolic Activation: RAT, LIVER, S-9, AROCLOR 1254 (30%), Method: PREINCUBATION); “inactive; negative” (Test System: AMES SALMONELLA TYPHIMURIUM, Strain/Indicator: TA98, Metabolic Activation: RAT, LIVER, S-9, AROCLOR 1254, Method: PREINCUBATION); “inactive; negative” (Test System: AMES SALMONELLA TYPHIMURIUM, Strain/Indicator: TA100, Metabolic Activation: HAMSTER, LIVER, S-9, AROCLOR 1254 (10%), Method: PREINCUBATION). The mutagenic call runs as follows: (Test System: AMES SALMONELLA TYPHIMURIUM, Strain/Indicator: TA100, Metabolic Activation: HAMSTER, LIVER, S-9, AROCLOR 1254 (30%), Method: PREINCUBATION) “inactive; negative”; (Test System: AMES SALMONELLA TYPHIMURIUM, Strain/Indicator: TA100, Metabolic Activation: NONE, Method: PREINCUBATION) “inactive; negative”; (Test System: AMES SALMONELLA TYPHIMURIUM, Strain/Indicator: TA100, Metabolic Activation: RAT, LIVER, S-9, AROCLOR 1254 (10%), Method: PREINCUBATION) “inactive; negative”; (Test System: AMES SALMONELLA TYPHIMURIUM, Strain/Indicator: TA100, Metabolic Activation: RAT, LIVER, S-9, AROCLOR 1254 (30%), Method: PREINCUBATION) “inactive; negative”; (Test System: AMES SALMONELLA TYPHIMURIUM, Strain/Indicator: TA100, Metabolic Activation: RAT, LIVER, S-9, AROCLOR 1254, Method: PREINCUBATION) “inactive; negative”; (Test System: AMES SALMONELLA TYPHIMURIUM, Strain/Indicator: TA102, Metabolic Activation: NONE, Method: PREINCUBATION) “inactive; negative”. Further, the mutagenic call is “inactive; negative” (Test System: AMES SALMONELLA TYPHIMURIUM, Strain/Indicator: TA102, Metabolic Activation: RAT, LIVER, S-9, AROCLOR 1254, Method: PREINCUBATION); “inactive; negative” (Test System: AMES SALMONELLA TYPHIMURIUM, Strain/Indicator: TA1535, Metabolic Activation: HAMSTER, LIVER, S-9, AROCLOR 1254 (10%), Method: PREINCUBATION); “inactive; negative” (Test System: AMES SALMONELLA TYPHIMURIUM, Strain/Indicator: TA1535, Metabolic Activation: HAMSTER, LIVER, S-9, AROCLOR 1254 (30%), Method: PREINCUBATION); “inactive; negative” (Test System: AMES SALMONELLA TYPHIMURIUM, Strain/Indicator: TA1535, Metabolic Activation: NONE, Method: PREINCUBATION); “inactive; negative” (Test System: AMES SALMONELLA TYPHIMURIUM, Strain/Indicator: TA1535, Metabolic Activation: RAT, LIVER, S-9, AROCLOR 1254 (10%), Method: PREINCUBATION); “inactive; negative” (Test System: AMES SALMONELLA TYPHIMURIUM, Strain/Indicator: TA1535, Metabolic Activation: RAT, LIVER, S-9, AROCLOR 1254 (30%), Method: PREINCUBATION). Further, the mutagenic call is “inactive; negative” (Test System: AMES SALMONELLA TYPHIMURIUM, Strain/Indicator: TA1537, Metabolic Activation: HAMSTER, LIVER, S-9, AROCLOR 1254 (10%), Method: PREINCUBATION); “inactive; negative” (Test System: AMES SALMONELLA TYPHIMURIUM, Strain/Indicator: TA1537, Metabolic Activation: NONE, Method: PREINCUBATION); “inactive; negative” (Test System: AMES SALMONELLA TYPHIMURIUM, Strain/Indicator: TA1537, Metabolic Activation: RAT, LIVER, S-9, AROCLOR 1254 (10%), Method: PREINCUBATION); “active; positive” (Test System: Mouse lymphoma, Strain/Indicator: L5178Y (tk+/tk-), Metabolic Activation: None, Method: Suspension/plate); “active; inconclusive (previous evaluation positive)” (Test System: Mouse lymphoma, Strain/Indicator: L5178Y (tk+/tk-), Metabolic Activation: Rat, Liver, S-9, Aroclor 1254, Method: Suspension/plate).

For `Oc1ccc2ncccc2c1`, the mutagenic call is “inactive; negative” (Test System: AMES SALMONELLA TYPHIMURIUM, Strain/Indicator: TA100, Metabolic Activation: NONE, Method: STANDARD PLATE) and “inactive; negative” (Test System: AMES SALMONELLA TYPHIMURIUM, Strain/Indicator: TA100, Metabolic Activation: RAT, LIVER, S-9, AROCLOR 1254 (10% OR 20%), Method: STANDARD PLATE).

In the case of `NC(=O)N(CCCCO)N=O`, the mutagenic call (Test System: E. COLI B, Strain/Indicator: H/R30R, Metabolic Activation: NONE) is “active; positive” and the mutagenic call (Test System: E. COLI B, Strain/Indicator: HS30R, Metabolic Activation: NONE) was “active; positive”.

In the case of `Cc1cc(C)c2cc(C)c(N)cc2n1`, where the note is “Test System: AMES SALMONELLA TYPHIMURIUM, Strain/Indicator: TA98, Method: STANDARD PLATE”, the mutagenic call is “active; positive”.
